Measured values: PubChem BioAssay (NCI)
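Results reflect a 48-hour exposure of cells in 96-well plates to compound at five concentrations. TGI: total growth inhibition.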

Legend:
Test in all cases: inhibition of tumour cell growth, NCI panel, 48 h
KM12 colon = system: KM12 colon
786-0 renal = system: 786-0 renal
UACC-62 melanoma = system: UACC-62 melanoma
SK-MEL-2 melanoma = system: SK-MEL-2 melanoma
ACHN renal = system: ACHN renal
RPMI-8226 leukemia = system: RPMI-8226 leukemia
NCI-H460 lung = system: NCI-H460 lung
RXF-631 renal = system: RXF-631 renal
HCC-2998 colon = system: HCC-2998 colon
UACC-257 melanoma = system: UACC-257 melanoma
NCI-H23 lung = system: NCI-H23 lung
OVCAR-8 ovarian = system: OVCAR-8 ovarian
A498 renal = system: A498 renal
OVCAR-4 ovarian = system: OVCAR-4 ovarian
LXFL 529 NSCLC = system: LXFL 529 NSCLC
SK-OV-3 ovarian = system: SK-OV-3 ovarian
SF-539 CNS = system: SF-539 CNS
OVCAR-5 ovarian = system: OVCAR-5 ovarian
COLO 205 colon = system: COLO 205 colon
CCRF-CEM leukemia = system: CCRF-CEM leukemia
SK-MEL-5 melanoma = system: SK-MEL-5 melanoma
KM20L2 colon = system: KM20L2 colon
HOP-92 NSCLC = system: HOP-92 NSCLC
IGROV1 ovarian = system: IGROV1 ovarian
HOP-62 NSCLC = system: HOP-62 NSCLC
SF-295 CNS = system: SF-295 CNS
HCT-15 colon = system: HCT-15 colon
HT29 colon = system: HT29 colon
MALME-3M melanoma = system: MALME-3M melanoma
SNB-19 CNS = system: SNB-19 CNS
A549 NSCLC = system: A549 NSCLC
MOLT-4 leukemia = system: MOLT-4 leukemia
K-562 leukemia = system: K-562 leukemia
HOP-18 NSCLC = system: HOP-18 NSCLC
EKVX NSCLC = system: EKVX NSCLC
TK-10 renal = system: TK-10 renal
XF 498 CNS = system: XF 498 CNS
HL-60(TB) leukemia = system: HL-60(TB) leukemia
SNB-75 CNS = system: SNB-75 CNS
DMS 114 small cell lung = system: DMS 114 small cell lung
SF-268 CNS = system: SF-268 CNS
SNB-78 CNS = system: SNB-78 CNS
DLD-1 colon = system: DLD-1 colon
OVCAR-3 ovarian = system: OVCAR-3 ovarian
SW-620 colon = system: SW-620 colon
RXF 393 renal = system: RXF 393 renal
SN12C renal = system: SN12C renal
HCT-116 colon = system: HCT-116 colon
U251 CNS = system: U251 CNS
M14 melanoma = system: M14 melanoma
SK-MEL-28 melanoma = system: SK-MEL-28 melanoma
CAKI-1 renal = system: CAKI-1 renal
DMS 273 small cell lung = system: DMS 273 small cell lung
M19-MEL melanoma = system: M19-MEL melanoma

Measured: TGI

COC(=O)[C@@]12CC(C(C)C)[C@H]3CC(C(=O)C=C1OC)[C@H]32 (some centres undefined)
> 100 µM: all assays above
